According to patent US20250170141A1, “MRGPRX2 MODULATORS AND RELATED METHODS OF TREATMENT” (Escient Pharmaceuticals, Inc., priority 2023, published 2025):

Biological target: T1, human MRGPRX2 (Homo sapiens, UniProt Q96LB1)
T1 construct: expressed in transfected cells; host or cells: CHO cells, stably transfected (G418 and Hygromycin B selection)
T1 sequence (Q96LB1 1-330): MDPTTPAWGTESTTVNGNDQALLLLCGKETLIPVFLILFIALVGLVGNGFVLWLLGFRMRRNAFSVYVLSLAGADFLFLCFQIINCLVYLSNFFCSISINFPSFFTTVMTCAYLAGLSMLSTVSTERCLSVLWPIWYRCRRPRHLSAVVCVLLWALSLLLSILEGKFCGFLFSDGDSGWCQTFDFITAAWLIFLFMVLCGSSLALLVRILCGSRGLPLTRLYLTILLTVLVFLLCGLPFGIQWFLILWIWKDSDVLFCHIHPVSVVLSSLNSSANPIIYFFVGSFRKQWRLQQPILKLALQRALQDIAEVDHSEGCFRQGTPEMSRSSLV
Test: MRGPRX2 activity: IP-One Gq HTRF assay in CHO cells, antagonism versus 0.3 uM Cortistatin-14
Format: cell-based
Settings: versus 0.3 uM Cortistatin-14 agonist, CHO cells expressing human MRGPRX2, read-out: MRGPRX2 Antagonist Activity
Summary of the method: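 CHO cells stably expressing human MRGPRX2 were treated with a 10-point compound curve (30 uM top, 1:3) plus 0.3 μM Cortistatin-14 in LiCl-containing Tris buffer, pH 8. Incubation was 1 h at 37 °C then 1 h at room temperature; IP-1 was detected by HTRF and IC50 came from the HTRF ratio.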

IC50 [nM]	Compound
< 100	O=C(c1ccccc1Cl)c1cccc2c1NC(NCc1ncccc1Cl)=NS2(=O)=O [Compound 16-1, (2-chlorophenyl)(3-(((3-chloropyridin-2-yl)methyl)amino)-1,1-dioxido-4H-benzo[e][1,2,4]thiadiazin-5-yl)methanone]
1000 to 2500	O=S1(=O)N=C(NCc2cccnc2F)Nc2c1cc(F)c(F)c2Cc1ccccc1Cl [Compound 4-7, 5-(2-chlorobenzyl)-6,7-difluoro-3-(((2-fluoropyridin-3-yl)methyl)amino)-4H-benzo[e][1,2,4]thiadiazine 1,1-dioxide]
100 to 500	O=S1(=O)N=C(NCc2ncccc2F)Nc2c1ccc(F)c2Oc1cccc(Cl)c1 [Compound 2-10, 5-(3-chlorophenoxy)-6-fluoro-3-(((3-fluoropyridin-2-yl)methyl)amino)-4H-benzo[e][1,2,4]thiadiazine 1,1-dioxide]
< 100	Cc1ccc(CNC2=NS(=O)(=O)c3cccc(Cc4ccccc4Cl)c3N2)c(Cl)c1 [Compound 12-5, 3-((2-chloro-4-methylbenzyl)amino)-5-(2-chlorobenzyl)-4H-benzo[e][1,2,4]thiadiazine 1,1-dioxide]
> 2500	O=S1(=O)N=C(NCc2ncccc2F)Nc2c(NCc3ccccc3Cl)cccc21 [Compound 17-1, 5-((2-chlorobenzyl)amino)-3-(((3-fluoropyridin-2-yl)methyl)amino)-4H-benzo[e][1,2,4]thiadiazine 1,1-dioxide]
< 100	O=S1(=O)N=C(NCc2cc(F)ccc2F)Nc2c1ccc(F)c2Oc1ccccc1Cl [Compound 1-23, 5-(2-chlorophenoxy)-3-((2,5-difluorobenzyl)amino)-6-fluoro-4H-benzo[e][1,2,4]thiadiazine 1,1-dioxide]
100 to 500	O=S1(=O)N=C(NCc2ncccc2F)Nc2c(Oc3ccccc3Cl)c(F)cc(Cl)c21 [Compound 1-41, 8-chloro-5-(2-chlorophenoxy)-6-fluoro-3-(((3-fluoropyridin-2-yl)methyl)amino)-4H-benzo[e][1,2,4]thiadiazine 1,1-dioxide]
> 2500	CC(C)c1ccc(NC2=NS(=O)(=O)c3cc(F)c(F)c(Cc4ccccc4Cl)c3N2)cc1 [Compound 4-15, 5-(2-chlorobenzyl)-6,7-difluoro-3-((4-isopropylphenyl)amino)-4H-benzo[e][1,2,4]thiadiazine 1,1-dioxide]
< 100	O=S1(=O)N=C(NCc2ccccc2F)Nc2c(Cc3ccccc3Cl)cccc21 [Compound 6-2, 5-(2-chlorobenzyl)-3-((2-fluorobenzyl)amino)-4H-benzo[e][1,2,4]thiadiazine 1,1-dioxide]
< 100	O=S1(=O)N=C(NCc2cccc(F)n2)Nc2c1ccc(Cl)c2Oc1ccccc1Cl [Compound 1-46, 6-chloro-5-(2-chlorophenoxy)-3-(((6-fluoropyridin-2-yl)methyl)amino)-4H-benzo[e][1,2,4]thiadiazine 1,1-dioxide]
100 to 500	COc1cccc(CNC2=NS(=O)(=O)c3ccc(F)c(Oc4ccccc4Cl)c3N2)c1 [Compound 1-3, 5-(2-chlorophenoxy)-6-fluoro-3-((3-methoxybenzyl)amino)-4H-benzo[e][1,2,4]thiadiazine 1,1-dioxide]
501 to 1000	O=S1(=O)N=C(NCc2ccc(F)cc2)Nc2c1cc(F)c(F)c2Cc1ccccc1Cl [Compound 4-13, 5-(2-chlorobenzyl)-6,7-difluoro-3-((4-fluorobenzyl)amino)-4H-benzo[e][1,2,4]thiadiazine 1,1-dioxide]
< 100	[2H]c1ccc2c(c1[C@H](C)c1ccccc1F)NC(NCc1ncccc1F)=NS2(=O)=O [Compound 23-1, (S)-5-(1-(2-fluorophenyl)ethyl)-3-(((3-fluoropyridin-2-yl)methyl)amino)-4H-benzo[e][1,2,4]thiadiazine 1,1-dioxide-6-d]
< 100	O=S1(=O)N=C(NCc2ncccc2Cl)Nc2c1ccc(F)c2Oc1ccccc1Cl [Compound 2-2, 5-(2-chlorophenoxy)-3-(((3-chloropyridin-2-yl)methyl)amino)-6-fluoro-4H-benzo[e][1,2,4]thiadiazine 1,1-dioxide]
1000 to 2500	N#Cc1ccc(Oc2c(F)ccc3c2NC(NCc2ncccc2F)=NS3(=O)=O)cc1 [Compound 2-12, 4-((6-fluoro-3-(((3-fluoropyridin-2-yl)methyl)amino)-1,1-dioxido-4H-benzo[e][1,2,4]thiadiazin-5-yl)oxy)benzonitrile]
< 100	O=S1(=O)N=C(NCc2ncccc2Cl)Nc2c(/C=C/c3ccccc3F)cccc21 [Compound 14-1, (E)-3-(((3-chloropyridin-2-yl)methyl)amino)-5-(2-fluorostyryl)-4H-benzo[e][1,2,4]thiadiazine 1,1-dioxide]
< 100	C=C(c1ccccc1F)c1cccc2c1NC(NCc1ncccc1Cl)=NS2(=O)=O [Compound 13-1, 3-(((3-chloropyridin-2-yl)methyl)amino)-5-(1-(2-fluorophenyl)vinyl)-4H-benzo[e][1,2,4]thiadiazine 1,1-dioxide]
< 100	COc1cccc(Cc2cccc3c2NC(NCc2ccccc2F)=NS3(=O)=O)c1 [Compound 6-9, 3-((2-fluorobenzyl)amino)-5-(3-methoxybenzyl)-4H-benzo[e][1,2,4]thiadiazine 1,1-dioxide]
< 100	CC(c1ccccc1F)c1c(F)ccc2c1NC(NCc1cccc(Cl)c1F)=NS2(=O)=O (stereo not shown) [Compound 9-2, 3-((3-chloro-2-fluorobenzyl)amino)-6-fluoro-5-(1-(2-fluorophenyl)ethyl)-4H-benzo[e][1,2,4]thiadiazine 1,1-dioxide]
< 100	O=S1(=O)N=C(NCc2cccnc2Cl)Nc2c(Cc3ccccc3Cl)cccc21 [Compound 12-18, 5-(2-chlorobenzyl)-3-(((2-chloropyridin-3-yl)methyl)amino)-4H-benzo[e][1,2,4]thiadiazine 1,1-dioxide]
< 100	CC(c1ccccc1F)c1c(F)ccc2c1NC(NCc1ccc(F)cc1F)=NS2(=O)=O (stereo not shown) [Compound 7-6, 3-((2,4-difluorobenzyl)amino)-6-fluoro-5-(1-(2-fluorophenyl)ethyl)-4H-benzo[e][1,2,4]thiadiazine 1,1-dioxide]
< 100	O=S1(=O)N=C(NCc2cccc(Cl)c2F)Nc2c1ccc(F)c2Cc1ccccc1Cl [Compound 4-3, 3-((3-chloro-2-fluorobenzyl)amino)-5-(2-chlorobenzyl)-6-fluoro-4H-benzo[e][1,2,4]thiadiazine 1,1-dioxide]
< 100	Cc1ccc(C(C)c2c(F)ccc3c2NC(NCc2cccc(F)c2)=NS3(=O)=O)o1 (stereo not shown) [Compound 22-10, 6-fluoro-3-((3-fluorobenzyl)amino)-5-(1-(5-methylfuran-2-yl)ethyl)-4H-benzo[e][1,2,4]thiadiazine 1,1-dioxide]
< 100	O=S1(=O)N=C(NCc2ncccc2F)Nc2c1cc(F)c(Cl)c2Oc1ccccc1Cl [Compound 1-48, 6-chloro-5-(2-chlorophenoxy)-7-fluoro-3-(((3-fluoropyridin-2-yl)methyl)amino)-4H-benzo[e][1,2,4]thiadiazine 1,1-dioxide]
< 100	O=S1(=O)N=C(NCc2ncccc2F)Nc2c1ccc(F)c2Oc1cccc(Cl)c1Cl [Compound 1-10, 5-(2,3-dichlorophenoxy)-6-fluoro-3-(((3-fluoropyridin-2-yl)methyl)amino)-4H-benzo[e][1,2,4]thiadiazine 1,1-dioxide]
